Numbers after ± are expanded uncertainties.
Test: molar heat capacity at constant pressure; wn = mass fraction of the nth substance listed
Details: 101 kPa, Liquid, Small sample (50 mg) DSC

## O=[N+]([O-])[O-].[Li+] [lithium nitrate] + O
303.15 K, w1 = 0.3
  molar heat capacity at constant pressure: 79.48 ± 1.8 J/K/mol
303.15 K, w1 = 0.35
  molar heat capacity at constant pressure: 78.8 ± 1.8 J/K/mol
303.15 K, w1 = 0.4
  molar heat capacity at constant pressure: 78.86 ± 1.9 J/K/mol
303.15 K, w1 = 0.45
  molar heat capacity at constant pressure: 80.9 ± 2 J/K/mol
303.15 K, w1 = 0.5
  molar heat capacity at constant pressure: 82.01 ± 2.1 J/K/mol
303.15 K, w1 = 0.55
  molar heat capacity at constant pressure: 83.66 ± 2.2 J/K/mol
313.15 K, w1 = 0.3
  molar heat capacity at constant pressure: 80.01 ± 1.8 J/K/mol
313.15 K, w1 = 0.35
  molar heat capacity at constant pressure: 79.55 ± 1.8 J/K/mol
313.15 K, w1 = 0.4
  molar heat capacity at constant pressure: 79.65 ± 1.9 J/K/mol
313.15 K, w1 = 0.45
  molar heat capacity at constant pressure: 81.5 ± 2 J/K/mol
313.15 K, w1 = 0.5
  molar heat capacity at constant pressure: 82.67 ± 2.1 J/K/mol
313.15 K, w1 = 0.55
  molar heat capacity at constant pressure: 84.48 ± 2.2 J/K/mol
313.15 K, w1 = 0.6
  molar heat capacity at constant pressure: 86.04 ± 2.3 J/K/mol
323.15 K, w1 = 0.3
  molar heat capacity at constant pressure: 80.61 ± 1.8 J/K/mol
323.15 K, w1 = 0.35
  molar heat capacity at constant pressure: 80.5 ± 1.8 J/K/mol
323.15 K, w1 = 0.4
  molar heat capacity at constant pressure: 80.42 ± 1.9 J/K/mol
323.15 K, w1 = 0.45
  molar heat capacity at constant pressure: 81.79 ± 2 J/K/mol
323.15 K, w1 = 0.5
  molar heat capacity at constant pressure: 83.53 ± 2.1 J/K/mol
323.15 K, w1 = 0.55
  molar heat capacity at constant pressure: 84.72 ± 2.2 J/K/mol
323.15 K, w1 = 0.6
  molar heat capacity at constant pressure: 86.29 ± 2.3 J/K/mol
333.15 K, w1 = 0.3
  molar heat capacity at constant pressure: 81.26 ± 1.8 J/K/mol
333.15 K, w1 = 0.35
  molar heat capacity at constant pressure: 81.18 ± 1.8 J/K/mol
333.15 K, w1 = 0.4
  molar heat capacity at constant pressure: 81.37 ± 1.9 J/K/mol
333.15 K, w1 = 0.45
  molar heat capacity at constant pressure: 82.23 ± 2 J/K/mol
333.15 K, w1 = 0.5
  molar heat capacity at constant pressure: 83.73 ± 2.1 J/K/mol
333.15 K, w1 = 0.55
  molar heat capacity at constant pressure: 84.66 ± 2.2 J/K/mol
333.15 K, w1 = 0.6
  molar heat capacity at constant pressure: 86.88 ± 2.3 J/K/mol
343.15 K, w1 = 0.3
  molar heat capacity at constant pressure: 81.58 ± 1.8 J/K/mol
343.15 K, w1 = 0.35
  molar heat capacity at constant pressure: 81.76 ± 1.9 J/K/mol
343.15 K, w1 = 0.4
  molar heat capacity at constant pressure: 81.83 ± 1.9 J/K/mol
343.15 K, w1 = 0.45
  molar heat capacity at constant pressure: 82.71 ± 2 J/K/mol
343.15 K, w1 = 0.5
  molar heat capacity at constant pressure: 84.07 ± 2.1 J/K/mol
343.15 K, w1 = 0.55
  molar heat capacity at constant pressure: 85.17 ± 2.2 J/K/mol
343.15 K, w1 = 0.6
  molar heat capacity at constant pressure: 87.07 ± 2.3 J/K/mol
353.15 K, w1 = 0.3
  molar heat capacity at constant pressure: 82.28 ± 1.8 J/K/mol
353.15 K, w1 = 0.35
  molar heat capacity at constant pressure: 82.27 ± 1.9 J/K/mol
353.15 K, w1 = 0.4
  molar heat capacity at constant pressure: 82.62 ± 1.9 J/K/mol
353.15 K, w1 = 0.45
  molar heat capacity at constant pressure: 83.71 ± 2 J/K/mol
353.15 K, w1 = 0.5
  molar heat capacity at constant pressure: 84.56 ± 2.1 J/K/mol
353.15 K, w1 = 0.55
  molar heat capacity at constant pressure: 86.18 ± 2.2 J/K/mol
353.15 K, w1 = 0.6
  molar heat capacity at constant pressure: 87.75 ± 2.3 J/K/mol
363.15 K, w1 = 0.3
  molar heat capacity at constant pressure: 82.69 ± 1.8 J/K/mol
363.15 K, w1 = 0.35
  molar heat capacity at constant pressure: 82.93 ± 1.9 J/K/mol
363.15 K, w1 = 0.4
  molar heat capacity at constant pressure: 83.28 ± 1.9 J/K/mol
363.15 K, w1 = 0.45
  molar heat capacity at constant pressure: 84.98 ± 2 J/K/mol
363.15 K, w1 = 0.5
  molar heat capacity at constant pressure: 85.84 ± 2.1 J/K/mol
363.15 K, w1 = 0.55
  molar heat capacity at constant pressure: 87.3 ± 2.2 J/K/mol
363.15 K, w1 = 0.6
  molar heat capacity at constant pressure: 88.43 ± 2.3 J/K/mol
373.15 K, w1 = 0.4
  molar heat capacity at constant pressure: 84.15 ± 1.9 J/K/mol
373.15 K, w1 = 0.45
  molar heat capacity at constant pressure: 86.11 ± 2 J/K/mol
373.15 K, w1 = 0.5
  molar heat capacity at constant pressure: 86.64 ± 2.1 J/K/mol
373.15 K, w1 = 0.55
  molar heat capacity at constant pressure: 88.09 ± 2.2 J/K/mol
373.15 K, w1 = 0.6
  molar heat capacity at constant pressure: 89.63 ± 2.3 J/K/mol

Reference: the NIST ThermoML archive (doi:10.1021/je301084m)
